Reference: patent US20230270148A1, “BITTER BLOCKERS AND RELATED METHODS OF USE” (Conagen Inc., priority 2020, published 2023)

Legend:
[1] = system: 0.25% caffeine solution; assay: Sensory evaluation: bitterness reduction of a caffeine solution; assay type: in vivo; conditions: for Comments: taste and mouth feel comments, dosage per sample; for Estimated % bitterness reduction: one trained sensory evaluator, vs control, dosage (ppm) per sample (20 to 50-100 ppm)
Method: (§1) The bitter blocker candidates listed in Table 1 were prepared into a 1% sample solution with propylene glycol (i.e., 1 g of bitter blocker per 100 ml of propylene glycol) and heated to ensure complete solubilization. […] A trained sensory evaluator was asked to estimate the perceived bitterness reduction against the control, as well as to provide comments on how the addition of the individual sample solution modulated the taste and mouth feel profile of the resulting caffeine solution.

[2] = system: peach-flavored energy drink (caffeine, B vitamins); assay: Sensory evaluation: bitterness reduction of a peach-flavored energy drink; assay type: in vivo; conditions: for Comments: dosage per sample; for Estimated % bitterness reduction: caffeine about 710 mg/l, dosage (ppm) per sample (20 to 50-100 ppm)
Method: as §1, with “The bitterness” for “The bitter”, “glycol” for “glycol (i.e., 1 g of bitter blocker per 100 ml of propylene glycol)”, “resulting peach-flavored energy drink.” for “resulting caffeine solution.”

[3] = system: cough syrup ROBITUSSIN DM (dextromethorphan HBr and guaifenesin); assay: Sensory evaluation: bitterness reduction of cough syrup ROBITUSSIN DM; assay type: in vivo; conditions: dosage 50 or 100 ppm per sample; for Estimated % bitterness reduction: 21000 mg/l of bitter tastants
Method: (§2) The bitterness blocker candidates listed in Table 1 were prepared into a 1% sample solution with propylene glycol and heated to ensure complete solubilization. […] Individually, the respective sample solution was added to a cough syrup sold under the trade name ROBITUSSIN® DM. The bitter-tasting agents contained in the cough syrup were dextromethorphan HBr USP 20 mg and guaifenesin USP 400 mg (as measured for each 20 ml serving, or 21000 mg/l of bitter tastants in total). A trained sensory evaluator was asked to estimate the perceived bitterness reduction against the control, as well as to provide comments on how the addition of the individual sample solution modulated the taste and mouth feel profile of the resulting cough syrup.

[4] = system: full spectrum CBD hemp oil nanoemulsion; assay: Sensory evaluation: bitterness reduction of full spectrum CBD hemp oil; assay type: in vivo; conditions: dosage 50 or 100 ppm per sample
Method: (§3) The bitterness blocker candidates listed in Table 1 were prepared into a 1% sample solution with propylene glycol and heated to ensure complete solubilization. […] A full spectrum CBD hemp oil was emulsified into a water-soluble nanoemulsion first, to which was added the respective sample solution. […] A trained sensory evaluator was asked to estimate the perceived bitterness reduction against the control, as well as to provide comments on how the addition of the individual sample solution modulated the taste and mouth feel profile of the resulting oil nanoemulsion.

[5] = system: THC nanoemulsion; assay: Sensory evaluation: bitterness reduction of THC; assay type: in vivo; conditions: dosage 50 or 100 ppm per sample; for Comments: THC nanoemulsion; for Estimated % bitterness reduction: THC nanoemulsion (10 mg THC per serving)
Method: The bitterness blocker candidates listed in Table 1 were prepared into a 1% sample solution with propylene glycol and heated to ensure complete solubilization. […] THC was first emulsified into a water-soluble nanoemulsion (10 mg THC per serving), to which was added the respective sample solution. A trained sensory evaluator was asked to estimate the perceived bitterness reduction against the control, as well as to provide comments on how the addition of the individual sample solution modulated the taste and mouth feel profile of the resulting nanoemulsion.

[6] = system: melted dark chocolate pieces with 100% dark cacao; assay: Sensory evaluation: bitterness reduction of dark chocolate pieces; assay type: in vivo; conditions: dosage 50 or 100 ppm per sample
Method: The bitterness blocker candidates listed in Table 1 were prepared into a 1% sample solution with propylene glycol and heated to ensure complete solubilization. […] Individually, the respective sample solution was added to melted dark chocolate pieces with 100% dark cacao. A trained sensory evaluator was asked to estimate the perceived bitterness reduction against the control, as well as to provide comments on how the addition of the individual sample solution modulated the taste and mouth feel profile of the resulting melted dark chocolate pieces.

[7] = system: cough syrup DELSYM (dextromethorphan HBr); assay: Sensory evaluation: bitterness reduction of cough syrup DELSYM; assay type: in vivo; conditions: dosage 50 or 100 ppm per sample; for Estimated % bitterness reduction: 6000 mg/l of dextromethorphan
Method: as §2, with “DELSYM®.” for “ROBITUSSIN® DM.”, “agent” for “agents”, “30” for “20 mg and guaifenesin USP 400”, “5” for “20”, “teaspoon, i.e., 6000” for “serving, or 21000”, “dextromethorphan).” for “bitter tastants in total).”

[8] = system: CBD isolate nanoemulsion; assay: Sensory evaluation: bitterness reduction of CBD isolate; assay type: in vivo; conditions: dosage 50 or 100 ppm per sample
Method: as §3, with “A” for “A full spectrum”, “isolate” for “hemp oil”, “resulting” for “resulting oil”

[9] = system: dark roast coffee; assay: Sensory evaluation: bitterness reduction of dark roast coffee; assay type: in vivo; conditions: dosage 50 or 100 ppm per sample; for Estimated % bitterness reduction: caffeine about 740 mg/l
Method: The bitterness blocker candidates listed in Table 1 were prepared into a 1% sample solution with propylene glycol and heated to ensure complete solubilization. […] A trained sensory evaluator was asked to estimate the perceived bitterness reduction against the control, as well as to provide comments on how the addition of the individual sample solution modulated the taste and mouth feel profile of the resulting dark roast coffee.

[10] = system: bitter-responsive human taste bud tissue-derived cells (hTBEC); assay: ATP secretion detection assay (luminescence); assay type: cell-based
Method: The bitter blocker candidates were further characterized using bitter-responsive human taste bud tissue-derived cells (hTBEC) platforms and bioassays. Bitter-responsive hTBECs were treated with hitter blocker candidates and various bitter agonists to assess the efficacy of each bitter blocker candidate in reducing the bitterness of each of the various bitter agonists.
One industry standard bitter agonist was used as a control (L-Praziquantel), and five bitter blocker controls were used (Senomyx BB68, STX-001, sodium gluconate, eridictyol, and homoeridictyol).
BB09, BB11, and BB13 were first tested at various concentrations in combination with 100 μM Dextromethorphan-HBr.
Next, bitter blocker concentration ranges were narrowed (100 μM-1,000 μM) and compared to a fixed concentration of stimulus. […] BB13 was evaluated further by real time ATP secretion detection in pooled hTBEC 66 cells treated with 300 μM Theobromine.
Each culture was treated with BB09, BB11, BB13, STX001, or Senomyx BB68, as well as either Dextromethorphan-HBr at 1000 μM (FIGS. 18A-18C), Theobromine at 1,000 μM (FIGS. 19A-19C), Rebaudioside A at 1 mM (FIGS. 20A-20C), or Caffeine at 3 mM (FIGS. 21A-21C).

[11] = system: caffeine in water; assay: Two-alternative forced choice (2AFC) difference test; assay type: in vivo
Method: The bitter blocker candidates BB09, BB11, and BB13 were subject to a two-alternative forced choice (2AFC) difference test wherein panelists were presented Control Caffeine solutions and Test solutions containing caffeine and one of three bitterness blocker candidates (BB09, BB 11, or BB13). Panelists were asked to evaluate the two samples and answer the question, “which one is more hitter?”
BB09 and BB11 were tested first. Three ounces of control (caffeine in water), BB09 in caffeine water, and BB11 in caffeine water were presented at room temperature in separate plastic souffle cups labeled with 3-digit codes. Ten sensory trained panelists evaluated each sample in three repetitions with a 10 minute break between repetitions. Panelists then completed the 2AFC. Data was collected on EveQuestion and analyzed on XLSTAT. Testing was conducted at Sensations Research according to FEMA guidelines.
BB13 was tested separately. Two ounces of control (caffeine in water), BB13 in caffeine water were presented at room temperature in separate plastic souffle cups labeled with 3-digit codes. Fifteen participants evaluated each sample in two repetitions with a 10 minute break between repetitions for a total of thirty evaluations as per the FEMA guidelines. Panelists then completed the 2AFC to identify the more bitter sample. Data was collected and analyzed on Compusense.

| Compound | Comments [1] | Comments [2] | Comments [4] | Comments [5] | Comments [6] | Comments [7] | Comments [8] | Comments [9] | also measured |
| --- | --- | --- | --- | --- | --- | --- | --- | --- | --- |
| COc1ccc(-c2cc(=O)c3c(O)cc(O)cc3o2)cc1 [BB01, Acacetin] | Some bitterness blocking on sides | – | – | – | – | – | – | – | – |
| COc1cc([C@@H]2CC(=O)c3c(O)cc(O)cc3O2)ccc1O [BB02, Homoeriodictyol] | – | Some blocking on sides and tip | Some blocking on sides and tip | Some blocking on sides and tip | Some blocking on sides and tip | Some blocking on sides and tip | Some blocking on sides and tip | Some blocking on sides and tip | Comments [3]: Some blocking on sides and tip |
| O=c1c(O)c(-c2ccc(O)cc2)oc2cc(O)cc(O)c12 [BB03, Kaempferol] | Some bitterness blocking on sides | – | – | – | – | – | – | – | – |
| O=C1c2c(O)cc(O)cc2O[C@H](c2ccc(O)c(O)c2)[C@H]1O [BB04, Dihydroquercetin] | Some bitterness blocking on sides | – | – | – | – | – | – | – | – |
| O=C1c2c(O)cc(O)cc2O[C@H](c2ccc(O)cc2)[C@H]1O [BB06, Dihydrokaempferol] | Some bitterness blocking on sides | – | – | – | – | – | – | – | – |
| O=C1C[C@@H](c2ccc(O)c(O)c2)Oc2cc(O)cc(O)c21 [BB07, Eriodictyol] | Some bitterness blocking on all parts | Some bitterness blocking on all | Some bitterness blocking on all | Some bitterness blocking on all | Some bitterness blocking on all | Some bitterness blocking on all | Some bitterness blocking on all | Some bitterness blocking on all | Estimated % bitterness reduction [2]: 50%; Estimated % bitterness reduction [3]: 30%; Comments [3]: Some bitterness blocking on all; Estimated % bitterness reduction [4]: 30%; Estimated % bitterness reduction [1]: 50%; Estimated % bitterness reduction [5]: 30%; Estimated % bitterness reduction [6]: 50%; Estimated % bitterness reduction [7]: 30%; Estimated % bitterness reduction [8]: 30%; Estimated % bitterness reduction [9]: 50% |
| COc1cc([C@@H]2CC(=O)c3c(O)cc(O[C@@H]4O[C@H](CO)[C@@H](O)[C@H](O)[C@H]4O)cc3O2)ccc1O [BB09, Homoeriodictyol 7-O-glucoside] | Good upfront bitterness reduction | Good upfront bitterness | Nice upfront bitterness reduction | Nice upfront bitterness reduction | Good bitterness reduction but | Covered up a good percentage of | Nice upfront bitterness reduction | Nice upfront bitterness reduction | real time Rebaudioside A-induced ATP secretion ([10]; 1 mM Rebaudioside A, blocker 1,000 μM, pooled hTBEC 56 cultures (FIG. 17)): attenuated; inhibition of the bitter agonists (ATP secretion) ([10]; hTBEC 66, hTBEC 56, hTBEC Donor H, Dextromethorphan-HBr at 1000 μM, Theobromine 1,000 μM, Rebaudioside A 1 mM or Caffeine 3 mM (FIGS. 18-21)): trends of inhibition in most cases; Significant? ([11]; 2AFC, 90% confidence level, which sample is more bitter): Yes,; # Selected Variant (which is more bitter?) ([11]; of 30 responses (10 panelists, 3 evaluations), control caffeine in water vs variant in caffeine water): 10 |
| O=C1C[C@@H](c2ccc(O[C@@H]3O[C@H](CO)[C@@H](O)[C@H](O)[C@H]3O)c(O)c2)Oc2cc(O)cc(O)c21 [BB12, Eriodictyol 4′-O-glucoside] | Some bitterness blocking on front | – | – | – | – | – | – | – | Estimated % bitterness reduction [2]: 30%; Estimated % bitterness reduction [3]: 30%; Estimated % bitterness reduction [4]: 30%; Estimated % bitterness reduction [1]: 30%; Estimated % bitterness reduction [5]: 30%; Estimated % bitterness reduction [6]: 30%; Estimated % bitterness reduction [7]: 30%; Estimated % bitterness reduction [8]: 30%; Estimated % bitterness reduction [9]: 30% |
